Measured values from ChEMBL document CHEMBL1153874, “Synthesis and biological evaluation of cytotoxic properties of stilbene-based resveratrol analogs” (Eur J Med Chem, 2009).
In brackets after ≈: the same amount, converted by molar mass.

Assays:
PC-3 = test: cells; settings: Homo sapiens, PC-3, 72 h
Description: Cytotoxicity against human PC3 cells after 72 hrs by MTT assay

Lytechinus variegatus [1] = test: Antimitotic activity in Lytechinus variegatus embryo assessed as inhibition of first cleavage at 417 uM relative to control; format: functional
[2] = Antimitotic activity in Lytechinus variegatus embryo assessed as inhibition of blastula formation at 41.7 uM relative to control; format: functional
[3] = Antimitotic activity in Lytechinus variegatus embryo assessed as inhibition of blastula formation at 417 uM relative to control; format: functional
B16 = test: Cytotoxicity against mouse B16 cells after 72 hrs by MTT assay; format: functional, cell-based; settings: B16, 72 h
HL-60 = test: Cytotoxicity against human HL60 cells after 72 hrs by MTT assay; format: functional, cell-based; settings: HL-60, 72 h
CCRF-CEM = test: Cytotoxicity against human CEM cells after 72 hrs by MTT assay; format: cell-based
Lytechinus variegatus [4] = test: Antimitotic activity in Lytechinus variegatus embryo assessed as inhibition of first cleavage at 41.7 uM relative to control; format: functional
Lytechinus variegatus [5] = test: Antimitotic activity in Lytechinus variegatus embryo assessed as inhibition of third cleavage at 41.7 uM relative to control; format: functional
HCT-8 = test: Cytotoxicity against human HCT8 cells after 72 hrs by MTT assay; format: functional, cell-based; settings: HCT-8, 72 h
K562 = test: Cytotoxicity against human K562 cells after 72 hrs by MTT assay; format: functional, cell-based; settings: K562, 72 h
[6] = Toxicity in mouse erythrocytes assessed as hemolysis at 1.5 to 200 ug/mL after 30 min by spectrophotometry; format: cell-based; settings: erythrocyte, 0.5 h
MDA-MB-435 = test: cells; settings: Homo sapiens, MDA-MB-435, 72 h
Description: Cytotoxicity against human MDA-MB-435 cells after 72 hrs by MTT assay

Lytechinus variegatus [7] = test: Antimitotic activity in Lytechinus variegatus embryo assessed as inhibition of third cleavage at 417 uM relative to control; format: functional
Lytechinus variegatus [8] = test: Antimitotic activity in Lytechinus variegatus embryo assessed as inhibition of third cleavage at 43.8 uM relative to control; format: functional
Lytechinus variegatus [9] = test: Antimitotic activity in Lytechinus variegatus embryo assessed as inhibition of first cleavage at 43.8 uM relative to control; format: functional
[10] = Antimitotic activity in Lytechinus variegatus embryo assessed as inhibition of blastula formation at 43.8 uM relative to control; format: functional
[11] = Antimitotic activity in Lytechinus variegatus embryo assessed as inhibition of blastula formation at 37 uM relative to control; format: functional
[12] = Antimitotic activity in Lytechinus variegatus embryo assessed as inhibition of blastula formation at 370 uM relative to control; format: functional
Lytechinus variegatus [13] = test: Antimitotic activity in Lytechinus variegatus embryo assessed as inhibition of first cleavage at 370 uM relative to control; format: functional
Lytechinus variegatus [14] = test: Antimitotic activity in Lytechinus variegatus embryo assessed as inhibition of third cleavage at 370 uM relative to control; format: functional
Lytechinus variegatus [15] = test: Antimitotic activity in Lytechinus variegatus embryo assessed as inhibition of third cleavage at 37 uM relative to control; format: functional
Lytechinus variegatus [16] = test: Antimitotic activity in Lytechinus variegatus embryo assessed as inhibition of first cleavage at 37 uM relative to control; format: functional
[17] = Antimitotic activity in Lytechinus variegatus embryo assessed as inhibition of blastula formation at 184 uM relative to control; format: functional
[18] = Antimitotic activity in Lytechinus variegatus embryo assessed as inhibition of blastula formation at 18.4 uM relative to control; format: functional
Lytechinus variegatus [19] = test: Antimitotic activity in Lytechinus variegatus embryo assessed as inhibition of third cleavage at 184 uM relative to control; format: functional
Lytechinus variegatus [20] = test: Antimitotic activity in Lytechinus variegatus embryo assessed as inhibition of first cleavage at 18.4 uM relative to control; format: functional
Lytechinus variegatus [21] = test: Antimitotic activity in Lytechinus variegatus embryo assessed as inhibition of first cleavage at 184 uM relative to control; format: functional
Lytechinus variegatus [22] = test: Antimitotic activity in Lytechinus variegatus embryo assessed as inhibition of third cleavage at 18.4 uM relative to control; format: functional
Lytechinus variegatus [23] = test: Antimitotic activity in Lytechinus variegatus embryo assessed as inhibition of third cleavage at 320 uM relative to control; format: functional
Lytechinus variegatus [24] = test: Antimitotic activity in Lytechinus variegatus embryo assessed as inhibition of first cleavage at 32 uM relative to control; format: functional
[25] = Antimitotic activity in Lytechinus variegatus embryo assessed as inhibition of blastula formation at 320 uM relative to control; format: functional
[26] = Antimitotic activity in Lytechinus variegatus embryo assessed as inhibition of blastula formation at 32 uM relative to control; format: functional
Lytechinus variegatus [27] = test: Antimitotic activity in Lytechinus variegatus embryo assessed as inhibition of third cleavage at 32 uM relative to control; format: functional
Lytechinus variegatus [28] = test: Antimitotic activity in Lytechinus variegatus embryo assessed as inhibition of first cleavage at 320 uM relative to control; format: functional
[29] = Antimitotic activity in Lytechinus variegatus embryo assessed as inhibition of blastula formation at 35.2 uM relative to control; format: functional
Lytechinus variegatus [30] = test: Antimitotic activity in Lytechinus variegatus embryo assessed as inhibition of first cleavage at 35.2 uM relative to control; format: functional
Lytechinus variegatus [31] = test: Antimitotic activity in Lytechinus variegatus embryo assessed as inhibition of first cleavage at 352 uM relative to control; format: functional
[32] = Antimitotic activity in Lytechinus variegatus embryo assessed as inhibition of blastula formation at 352 uM relative to control; format: functional
Lytechinus variegatus [33] = test: Antimitotic activity in Lytechinus variegatus embryo assessed as inhibition of third cleavage at 352 uM relative to control; format: functional
Lytechinus variegatus [34] = test: Antimitotic activity in Lytechinus variegatus embryo assessed as inhibition of third cleavage at 35.2 uM relative to control; format: functional
[35] = Antimitotic activity in Lytechinus variegatus embryo assessed as inhibition of blastula formation at 39.4 uM relative to control; format: functional
Lytechinus variegatus [36] = test: Antimitotic activity in Lytechinus variegatus embryo assessed as inhibition of third cleavage at 39.4 uM relative to control; format: functional
[37] = Antimitotic activity in Lytechinus variegatus embryo assessed as inhibition of blastula formation at 394 uM relative to control; format: functional
Lytechinus variegatus [38] = test: Antimitotic activity in Lytechinus variegatus embryo assessed as inhibition of first cleavage at 394 uM relative to control; format: functional
Lytechinus variegatus [39] = test: Antimitotic activity in Lytechinus variegatus embryo assessed as inhibition of first cleavage at 39.4 uM relative to control; format: functional
Lytechinus variegatus [40] = test: Antimitotic activity in Lytechinus variegatus embryo assessed as inhibition of third cleavage at 394 uM relative to control; format: functional

Row | SMILES | IC50 (PC-3) [µg/mL] | inhibition (Lytechinus variegatus [1]) [%] | inhibition at 41.7 µM [2] [%] | inhibition at 417 µM [3] [%] | IC50 (B16) [µg/mL] | IC50 (HL-60) [µg/mL] | IC50 (CCRF-CEM) [µg/mL] | inhibition (Lytechinus variegatus [4]) [%] | inhibition (Lytechinus variegatus [5]) [%] | IC50 (HCT-8) [µg/mL] | IC50 (K562) [µg/mL] | Activity [6] | IC50 (MDA-MB-435) [µg/mL] | inhibition (Lytechinus variegatus [7]) [%] | other results
1 | COc1ccc(/C=C/c2ccccc2)cc1OC | > 25 | 0 | 83 | 100 | > 25 | > 25 | > 25 | 0 | 6 | > 25 | > 25 | Non-toxic | > 25 | 100 | 
2 | Oc1ccc(/C=C/c2cc(O)cc(O)c2)cc1 [RESVERATROL] | 3.51 (≈ 15.4 µM) |  |  |  | 14.3 (≈ 62.9 µM) | 2.45 (≈ 10.7 µM) | 5.91 (≈ 25.9 µM) |  |  | 5.82 (≈ 25.5 µM) | 9.62 (≈ 42.1 µM) | Non-toxic | 13.8 (≈ 60.5 µM) |  | inhibition (Lytechinus variegatus [8]): 100%; inhibition (Lytechinus variegatus [9]): 97.9%; inhibition at 43.8 µM [10]: 100%
3 | COc1ccc(/C=C\c2ccccc2)cc1OC | > 25 | 100 | 100 | 100 | > 25 | 6.42 (≈ 26.7 µM) | > 25 | 0 | 100 | > 25 | 6.38 (≈ 26.5 µM) | Non-toxic | 6.08 (≈ 25.3 µM) | 100 | 
4 | COc1cc(/C=C(/C(=O)O)c2ccccc2)ccc1O | > 25 |  |  |  | > 25 | > 25 | > 25 |  |  | > 25 | > 25 | Non-toxic | 17.8 (≈ 65.7 µM) |  | inhibition at 37 µM [11]: 5.3%; inhibition at 370 µM [12]: 99.7%; inhibition (Lytechinus variegatus [13]): 0%; inhibition (Lytechinus variegatus [14]): 7.3%; inhibition (Lytechinus variegatus [15]): 7.6%; inhibition (Lytechinus variegatus [16]): 0%
5 | COc1cccc2c1C(=O)c1c(O)c3c(c(O)c1C2=O)C[C@@](O)(C(=O)CO)C[C@@H]3O[C@H]1C[C@H](N)[C@H](O)[C@H](C)O1 [DOXORUBICIN] | 0.45 (≈ 0.828 µM) |  |  |  |  |  | 0.02 (≈ 0.0368 µM) |  |  |  | 0.14 (≈ 0.258 µM) |  |  |  | inhibition at 184 µM [17]: 100%; inhibition at 18.4 µM [18]: 100%; inhibition (Lytechinus variegatus [19]): 100%; inhibition (Lytechinus variegatus [20]): 100%; inhibition (Lytechinus variegatus [21]): 100%; inhibition (Lytechinus variegatus [22]): 100%
6 | COc1cc(/C=C(/C(=O)O)c2ccccc2)ccc1OC(C)=O | > 25 |  |  |  | > 25 | > 25 | > 25 |  |  | > 25 | > 25 | Non-toxic | > 25 |  | inhibition (Lytechinus variegatus [23]): 100%; inhibition (Lytechinus variegatus [24]): 0%; inhibition at 320 µM [25]: 100%; inhibition at 32 µM [26]: 5%; inhibition (Lytechinus variegatus [27]): 2.3%; inhibition (Lytechinus variegatus [28]): 100%
7 | O=C(O)/C(=C/c1ccccc1O)c1ccccc1 | > 25 | 44.5 | 97.3 | 95.4 | > 25 | > 25 | > 25 | 12.3 | 96.3 | > 25 | > 25 | Non-toxic | > 25 | 100 | 
8 | COc1ccc(/C=C(/C(=O)O)c2ccccc2)cc1OC | > 25 |  |  |  | > 25 | > 25 | > 25 |  |  | > 25 | > 25 | Non-toxic | > 25 |  | inhibition at 35.2 µM [29]: 0.7%; inhibition (Lytechinus variegatus [30]): 4.3%; inhibition (Lytechinus variegatus [31]): 3%; inhibition at 352 µM [32]: 0.7%; inhibition (Lytechinus variegatus [33]): 0%; inhibition (Lytechinus variegatus [34]): 0%
9 | COc1ccc(/C=C(/C(=O)O)c2ccccc2)cc1 | > 25 |  |  |  | > 25 | > 25 | > 25 |  |  | > 25 | > 25 | Non-toxic | > 25 |  | inhibition at 39.4 µM [35]: 0.3%; inhibition (Lytechinus variegatus [36]): 3.6%; inhibition at 394 µM [37]: 68.7%; inhibition (Lytechinus variegatus [38]): 0%; inhibition (Lytechinus variegatus [39]): 0%; inhibition (Lytechinus variegatus [40]): 9.3%
